Measured values from patent US11690810B2, “Combination treatment of bacterial infection” (The Chinese University of Hong Kong, priority 2018, dated 2023).
Read-outs that look alike come from different tables or passages of the source.

Columns and labels:
[1] = system: S. aureus SA-1199B (NorA efflux pump overexpressed); experiment: MIC and checkerboard (FIC) assay; conditions: for FIC / MIC combine: 1199B; for MIC: read-out: MIC alone, 1199B
[2] = system: NorA overexpressed S. aureus; conditions: ECG at 20 μg/ml; norfloxacin-resistant S. aureus overexpressing NorA (16); cited from earlier work
[3] = system: adherence of MRSA strain JE-2 to HaCat keratinocytes; experiment: Bacterial adherence to HaCaT keratinocytes; format: cell-based, Staphylococcus aureus

In the case of `O=C(O[C@@H]1Cc2c(O)cc(O)cc2O[C@@H]1c1ccc(O)c(O)c1)c1cc(O)c(O)c(O)c1` [ECG, epicatechin gallate], the FIC ([1]; Baicalein with ECG) is reported as 0.25, the MIC combine ([1]; Baicalein with ECG) is reported as 8 µg/mL and the FIC ([1]; Kuraridin with ECG) is reported as 0.06. For the same molecule, the MIC combine ([1]; Kuraridin with ECG) was 32 µg/mL, the MIC90 ([1]; Staphylococcus aureus) was 8 µg/mL and the MIC99 ([1]; Staphylococcus aureus, read-out: MIC 99.9) was > 512 µg/mL. For the same molecule, the MIC ([1]; Staphylococcus aureus, Baicalein and ECG section) was 32 µg/mL, the MIC ([1]; Staphylococcus aureus, Kuraridin and ECG section) was 512 µg/mL and the “potentiation of the activity of norfloxacin” value [2] was “four-fold potentiation”. The “decrease in the adherence of the WT strain to HaCaT cells” value ([3]; 64 μg/ml of ECG) was 1.4 fold, the “percentage of adherence of the bacteria to HaCaT cells” value (“percentage” below) ([3]; ECG 4 μg/ml) was 73.0±4.1% and the “percentage” value ([3]; ECG 8 μg/ml) was 75.4±11.0%. For the same molecule, the “percentage” value ([3]; ECG 16 μg/ml) was 76.4±7.0%, the “percentage” value ([3]; ECG 32 μg/ml) was 58.8±8.5% and the “percentage” value ([3]; ECG 64 μg/ml) was 52±6.5%.
